Reference: ChEMBL document CHEMBL5512619, “Anticancer mechanism of coumarin-based derivatives” (Eur J Med Chem, 2024)
In brackets after ≈: the same amount, converted by molar mass.

Legend:
LCLC-103H cell line = assay: Cytotoxicity against human LCLC-103H cell line assessed as inhibition of cell growth; format: functional, cell-based
A-427 = assay: Cytotoxicity against human A-427 cells assessed as inhibition of cell growth; format: functional, cell-based
RT-4 = assay: Cytotoxicity against human RT-4 cells assessed as inhibition of cell growth; format: functional, cell-based
MCF7 [1] = assay: Antiproliferative activity against human MCF7 cells measured after 72 hrs by SRB method; format: functional, cell-based; details: MCF7, 72 h
HCT-116 [2] = assay: Antiproliferative activity against human HCT-116 cells measured after 72 hrs in presence of paclitaxel by SRB method; format: functional, cell-based; details: HCT-116, 72 h
HCT-116 [3] = assay: cells; details: Homo sapiens, HCT-116, 72 h
Description: Antiproliferative activity against human HCT-116 cells measured after 72 hrs by SRB method

HeLa = assay: Antiproliferative activity against human HeLa cells measured after 72 hrs by SRB method; format: functional, cell-based
HepG2 = assay: Antiproliferative activity against human HepG2 cells measured after 72 hrs by SRB method; format: functional, cell-based; details: HepG2, 72 h
Caco-2 [4] = assay: Antiproliferative activity against human Caco-2 cells measured after 72 hrs in presence of paclitaxel by SRB method; format: functional, cell-based; details: Caco-2, 72 h
A549 = assay: Cytotoxicity against human A549 cells assessed as inhibition of cell growth by MTT assay; format: functional, cell-based
MCF7 [5] = assay: Cytotoxicity against human MCF7 cells assessed as inhibition of cell growth by MTT assay; format: functional, cell-based
[6] = Cytotoxicity against human BEAS-2B cells assessed as inhibition of cell growth by MTT assay; format: toxicity, cell-based
[7] = target: Bromodomain-containing protein 4 (Homo sapiens, UniProt O60885); assay: Inhibition of BRD4 (unknown origin)
MDA-MB-231 = assay: Inhibition of cell invasion in human MDA-MB-231 cells at 100 uM measured after 24 hrs by crystal violet staining based microscopy analysis relative to control; format: functional
Caco-2 [8] = assay: Antiproliferative activity against human Caco-2 cells measured after 72 hrs by SRB method; details: Caco-2, 72 h
KB = assay: Antiproliferative activity against human KB cells measured after 48 hrs by MTT assay; format: functional, cell-based
T98G = assay: Induction of apoptosis in human T98G cells relative to control; format: functional

## CCN(CC)c1ccc2cc(-c3nc4ccccc4o3)c(=N)oc2c1
LCLC-103H cell line
  IC50: < 10 nM
A-427
  IC50: < 10 nM
RT-4
  IC50: < 10 nM

## COc1cc(C)c2oc(=O)c(C)c3c2c1[C@@H](C)CO3
MCF7 [1]
  IC50: 740 nM
HCT-116 [2]
  IC50: 5.1 nM
HCT-116 [3]
  IC50: 740 nM
HeLa
  IC50: 740 nM
HepG2
  IC50: 740 nM
Caco-2 [4]
  IC50: 130 nM

## C/C(=N\Cc1ccc(O)cc1)c1c(O)c2ccccc2oc1=O
A549
  IC50: 6.09 µg/mL (≈ 19.7 µM)
MCF7 [5]
  IC50: 1.41 µg/mL (≈ 4.56 µM)
[6]
  IC50: 4.08 µg/mL (≈ 13.2 µM)

## CCS(=O)(=O)Nc1ccc(Oc2ccccc2OC)c(-c2ccc3oc(=O)cc(OC)c3c2)c1
[7]
  IC50: 99 nM

## COc1ccc2ccc(=O)oc2c1CC=C(C)C [OSTHOLE]
MDA-MB-231
  inhibition at 100 µM: 97.6%

## CC(=O)O[C@H]1C(=O)[C@@]2(C)[C@H]([C@H](OC(=O)c3ccccc3)[C@]3(O)C[C@H](OC(=O)[C@H](O)[C@@H](NC(=O)c4ccccc4)c4ccccc4)C(C)=C1C3(C)C)[C@]1(OC(C)=O)CO[C@@H]1C[C@@H]2O [PACLITAXEL]
HCT-116 [3]
  IC50: 27.9 nM
Caco-2 [8]
  IC50: 2100 nM

## O=c1ccc2ccc(O)cc2o1 [UMBELLIFERONE]
KB
  IC50: 200000 nM
T98G
  Activity: 15%
